Data as given in patent US8435978B2, “Substituted sulfonamide compounds” (Gruenenthal GmbH, priority 2006, dated 2013).
Where a name gives a salt, the structure may show the parent alone.

Assays:
human B1R receptor = biological target: T1, human B1R receptor (Homo sapiens, UniProt P46663); test: Functional study on the bradykinin receptor 1 (B1R), FLIPR Ca2+ assay, hB1R cells; assay type: cell-based; details: agonist Lys-Des-Arg9-bradykinin 0.5 nM, % inhibition compared with the maximum achievable inhibition; for inhibition at 10 µM: CHO-K1, test substance 10 μM, read-out: B1R Antagonism, human [10 μM] % Inhibition
T1 construct: host or cells: CHO K1 cells (Chinese hamster ovary), stably transfected
T1 sequence (P46663 1-353): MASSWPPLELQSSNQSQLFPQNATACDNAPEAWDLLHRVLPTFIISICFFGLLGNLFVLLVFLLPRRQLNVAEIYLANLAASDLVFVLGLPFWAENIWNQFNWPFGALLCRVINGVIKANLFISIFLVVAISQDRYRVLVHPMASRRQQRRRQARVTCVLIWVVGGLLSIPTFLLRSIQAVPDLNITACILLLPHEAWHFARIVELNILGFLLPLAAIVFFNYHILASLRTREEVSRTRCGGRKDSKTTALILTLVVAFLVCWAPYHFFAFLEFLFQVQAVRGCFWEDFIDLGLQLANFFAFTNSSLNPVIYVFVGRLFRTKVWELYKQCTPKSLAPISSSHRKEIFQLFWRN
Procedure, shortened: (§1)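 CHO K1 cells stably expressing human or rat B1R were loaded with Fluo-4 and read on a FLIPR (ex 488/em 540 nm, peak fluorescence). Test compounds at 10 μM were added first, then after 10 min agonist: Lys-Des-Arg9-bradykinin 0.5 nM for hB1R, Des-Arg9-bradykinin 100 nM for rB1R; % inhibition versus maximum inhibition.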

B1R receptor of the rat = biological target: T2, B1R receptor of the rat (Rattus norvegicus, UniProt P97583); test: Functional study on the bradykinin receptor 1 (B1R), FLIPR Ca2+ assay, rB1R cells; assay type: cell-based; details: agonist Des-Arg9-bradykinin 100 nM, % inhibition compared with the maximum achievable inhibition; for inhibition at 10 µM: CHO-K1, test substance 10 μM, read-out: B1R Antagonism, rat [10 μM] % Inhibition
T2 construct: host or cells: CHO K1 cells (Chinese hamster ovary), stably transfected
T2 sequence (P97583 1-337): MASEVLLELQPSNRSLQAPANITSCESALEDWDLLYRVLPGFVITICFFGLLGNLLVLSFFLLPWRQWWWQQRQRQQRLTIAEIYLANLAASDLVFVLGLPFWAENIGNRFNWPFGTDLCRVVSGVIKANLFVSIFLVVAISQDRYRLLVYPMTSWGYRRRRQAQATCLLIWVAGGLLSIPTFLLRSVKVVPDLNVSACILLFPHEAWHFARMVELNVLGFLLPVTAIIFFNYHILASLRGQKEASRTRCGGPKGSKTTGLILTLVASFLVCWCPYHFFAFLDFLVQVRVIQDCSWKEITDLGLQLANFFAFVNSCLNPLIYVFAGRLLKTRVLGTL
Procedure, shortened: as §1

SMILES | inhibition at 10 µM (human B1R receptor) | inhibition at 10 µM (B1R receptor of the rat) | B1R Antagonism, human [10 μM] % Inhibition (human B1R receptor; test substance 10 μM, hB1R CHO K1 cells) | B1R Antagonism, rat [10 μM] % Inhibition (B1R receptor of the rat; test substance 10 μM, rB1R CHO K1 cells)
COc1cc(C)c(S(=O)(=O)N2Cc3ccccc3CC2COCC(=O)N2CCN(CC3CCN(C)CC3)CC2)c(C)c1C (stereo not shown) [Example 563, 2-((2-(4-methoxy-2,3,6-trimethylphenylsulfonyl)-1,2,3,4-tetrahydroisoquinolin-3-yl)methoxy)-1-(4-((1-methylpiperidin-4-yl)methyl)piperazin-1-yl)ethanone] | 102% | 100% | – | –
COc1cc(C)c(S(=O)(=O)N2CCCCC2COCC(=O)N(Cc2ccccc2)c2cccc(C)n2)c(C)c1 (stereo not shown) [Example 508, N-benzyl-2-((1-(4-methoxy-2,6-dimethylphenylsulfonyl)piperidin-2-yl)methoxy)-N-(6-methylpyridin-2-yl)acetamide] | 31.9% | 103% | – | –
CCN(Cc1ccncc1)C(=O)COCC1CCCCN1S(=O)(=O)c1c(Cl)cccc1Cl (stereo not shown) [Example 482, 2-((1-(2,6-dichlorophenylsulfonyl)piperidin-2-yl)methoxy)-N-ethyl-N-(pyridin-4-ylmethyl)acetamide] | 97.9% | 102% | – | –
COc1ccc(-c2cc(NC(=O)COCC3CCCCN3S(=O)(=O)c3c(C)cc(OC)cc3C)n[nH]2)cc1 (stereo not shown) [Example 543, 2-((1-(4-methoxy-2,6-dimethylphenylsulfonyl)piperidin-2-yl)methoxy)-N-(5-(4-methoxyphenyl)-1H-pyrazol-3-yl)acetamide] | 21.1% | 105% | – | –
CN(CCc1ccncc1)C(=O)COCC1CCCCN1S(=O)(=O)c1c(Cl)cc(Cl)cc1Cl (stereo not shown) [Example 391, N-methyl-N-(2-(pyridin-4-yl)ethyl)-2-((1-(2,4,6-trichlorophenylsulfonyl)piperidin-2-yl)methoxy)acetamide] | 97.8% | 102% | – | –
CN(C(=O)COCC1CCCCN1S(=O)(=O)c1cccc2ccccc12)C(CN1CCOCC1)c1ccccc1 (stereo not shown) [Example 47, N-methyl-N-(2-morpholin-4-yl-1-phenyl-ethyl)-2-[1-(naphthyl-1-sulfonyl)-piperidin-2-ylmethoxy]-acetamide] | – | – | 68.07% | 48.84%
CCN1CCN(c2ccc(NC(=O)COCC3CCCCN3S(=O)(=O)c3ccc(OC)cc3)cc2)CC1 (stereo not shown) [Example 555, N-(4-(4-ethylpiperazin-1-yl)phenyl)-2-((1-(4-methoxyphenylsulfonyl)piperidin-2-yl)methoxy)acetamide] | 62.5% | 102% | – | –
COc1cc(C)c(S(=O)(=O)N2CCCCC2COCC(=O)Nc2cc(-c3ccc(C)cc3)n[nH]2)c(C)c1 (stereo not shown) [Example 544, 2-((1-(4-methoxy-2,6-dimethylphenylsulfonyl)piperidin-2-yl)methoxy)-N-(3-p-tolyl-1H-pyrazol-5-yl)acetamide] | 11.7% | 107% | – | –
COc1cc(C)c(S(=O)(=O)N2CCCCC2COCC(=O)N2CCCC2c2ccc(N(C)C)cc2)c(C)c1 (stereo not shown) [Example 398, 1-(2-(4-(dimethylamino)phenyl)pyrrolidin-1-yl)-2-((1-(4-methoxy-2,6-dimethylphenylsulfonyl)piperidin-2-yl)methoxy)ethanone] | 59.8% | 98% | – | –
COc1ccc(S(=O)(=O)N2CCCCC2COCC(=O)N2CCN(c3nc(CCc4ccccc4)cs3)CC2)cc1 (stereo not shown) [Example 220, 2-((1-(4-methoxyphenylsulfonyl)piperidin-2-yl)methoxy)-1-(4-(4-phenethylthiazol-2-yl)piperazin-1-yl)ethanone] | 15.3% | 86.3% | – | –
COc1cc(C)c(S(=O)(=O)N2CCCC2COCC(=O)N2CCN(c3ccc(C(F)(F)F)cn3)CC2)c(C)c1 (stereo not shown) [Example 468, 2-((1-(4-methoxy-2,6-dimethylphenylsulfonyl)pyrrolidin-2-yl)methoxy)-1-(4-(5-(trifluoromethyl)pyridin-2-yl)piperazin-1-yl)ethanone] | 84.5% | 101% | – | –
COc1cc(C)c(S(=O)(=O)N2CCCC2COCC(=O)N2CCN(c3ccccn3)CC2)c(C)c1 (stereo not shown) [Example 305, 2-((1-(4-methoxy-2,6-dimethylphenylsulfonyl)pyrrolidin-2-yl)methoxy)-1-(4-(pyridin-2-yl)piperazin-1-yl)ethanone] | 76.4% | 95.5% | – | –
COc1cc(C)c(S(=O)(=O)N2CCCCC2COCC(=O)N2CCN(c3ccc(F)cc3)CC2)c(C)c1 (stereo not shown) [Example 289, 1-(4-(4-fluorophenyl)piperazin-1-yl)-2-((1-(4-methoxy-2,6-dimethylphenylsulfonyl)piperidin-2-yl)methoxy)ethanone] | 103% | 95.5% | – | –

Now from value to molecule:

inhibition at 10 µM (human B1R receptor) | inhibition at 10 µM (B1R receptor of the rat) | B1R Antagonism, human [10 μM] % Inhibition (human B1R receptor; test substance 10 μM, hB1R CHO K1 cells) | B1R Antagonism, rat [10 μM] % Inhibition (B1R receptor of the rat; test substance 10 μM, rB1R CHO K1 cells) | SMILES
101% | 98% | – | – | COc1ccc(S(=O)(=O)N2CCCCC2COCC(=O)N2CCN(C3CCN(C)CC3)CC2)c2ccccc12 (stereo not shown) [Example 174, 2-((1-(4-methoxynaphthalen-1-ylsulfonyl)piperidin-2-yl)methoxy)-1-(4-(1-methylpiperidin-4-yl)piperazin-1-yl)ethanone dihydrochloride]
104% | 106% | – | – | O=C(COCC1CCCCN1S(=O)(=O)c1c(Cl)cc(Cl)cc1Cl)NCc1ccc(CN2CCCCC2)cc1 (stereo not shown) [Example 4, N-(4-piperidin-1-ylmethyl-benzyl)-2-[1-(2,4,6-trichloro-phenylsulfonyl)-piperidin-2-ylmethoxy]-acetamide]
86.8% | 4.56% | – | – | O=C(COCC1CCCCN1S(=O)(=O)c1ccc(Cl)c(Cl)c1)N1CCC(N2CCCC2)CC1 (stereo not shown) [Example 26, 2-[1-(3,4-dichloro-phenylsulfonyl)-piperidin-2-ylmethoxy]-1-(4-pyrrolidin-1-yl-piperidin-1-yl)-ethanone]
102% | 103% | – | – | Cc1cc(S(=O)(=O)N2CCCCC2COCC(=O)N2CCN(C3CCN(C)CC3)CC2)c(C)cc1Cl (stereo not shown) [Example 114, 2-((1-(4-chloro-2,5-dimethylphenylsulfonyl)piperidin-2-yl)methoxy)-1-(4-(1-methylpiperidin-4-yl)piperazin-1-yl)ethanone dihydrochloride]
81.9% | 103% | – | – | COc1cc(C)c(S(=O)(=O)N2CCCC2COCC(=O)N2CCC(N3CCOCC3)CC2)c(C)c1 (stereo not shown) [Example 519, 2-((1-(4-methoxy-2,6-dimethylphenylsulfonyl)pyrrolidin-2-yl)methoxy)-1-(4-morpholinopiperidin-1-yl)ethanone]
102% | 58.1% | – | – | CN1CCC(N2CCN(C(=O)COCC3CCCCN3S(=O)(=O)c3ccc(Cl)c(C(F)(F)F)c3)CC2)CC1 (stereo not shown) [Example 115, 2-((1-(4-chloro-3-(trifluoromethyl)phenylsulfonyl)piperidin-2-yl)methoxy)-1-(4-(1-methylpiperidin-4-yl)piperazin-1-yl)ethanone]
106% | 99.3% | – | – | O=C(COCC1CCCN1S(=O)(=O)c1c(Cl)cc(Cl)cc1Cl)N1CCC(N2CCCC2)CC1 (stereo not shown) [Example 296, 1-(4-(pyrrolidin-1-yl)piperidin-1-yl)-2-((1-(2,4,6-trichlorophenylsulfonyl)pyrrolidin-2-yl)methoxy)ethanone]
